Results reported in ChEMBL document CHEMBL1201862, “PubChem BioAssay data set” (2004).
Active and inactive are the calls of the source.

Columns and labels:
[1] = biological target: T1, Trace amine-associated receptor 1 (Homo sapiens, UniProt Q96RJ0); test: Fluorescence-based cell-based high throughput dose response assay to identify agonists of the human trace amine associated receptor 1 (TAAR1).; assay type: functional
T1 sequence (Q96RJ0 whole entry): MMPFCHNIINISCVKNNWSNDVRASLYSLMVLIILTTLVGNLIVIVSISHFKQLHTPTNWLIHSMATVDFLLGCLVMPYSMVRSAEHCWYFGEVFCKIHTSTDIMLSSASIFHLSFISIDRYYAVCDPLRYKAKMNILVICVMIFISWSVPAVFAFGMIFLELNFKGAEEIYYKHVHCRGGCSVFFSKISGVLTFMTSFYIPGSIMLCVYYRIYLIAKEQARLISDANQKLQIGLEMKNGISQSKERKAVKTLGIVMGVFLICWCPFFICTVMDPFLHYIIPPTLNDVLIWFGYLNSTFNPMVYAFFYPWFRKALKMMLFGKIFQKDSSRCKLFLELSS

[2] = cells; assay type: functional, cell-based
[3] = biological target: T1, Trace amine-associated receptor 1; test: Counterscreen for agonists of the human trace amine associated receptor 1 (hTAAR1): Fluorescence-based cell-based high throughput dose response assay to identify hTAAR1 agonist that also desensitize TAAR1 receptor response.; assay type: functional
[4] = cells; assay type: functional, cell-based; remark: listed apart in the source
[5] = biological target: Fructose-bisphosphate aldolase (Mycobacterium tuberculosis, UniProt P9WQA3); test: Fluorescence-based biochemical high throughput dose response assay for inhibitors of the fructose-bisphosphate aldolase (FBA) of M. tuberculosis.; assay type: functional
[6] = inhibitors of intracellular T. cruzi replication, confirmation, NIH3T3 host cells, beta-gal luminescence (AID 2044); assay type: functional, cell-based;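 note: intracellular parasites grown in NIH/3T3 mouse fibroblasts as host cells; luminescent beta-galactosidase reporter signal from transgenic T. cruzi replicating inside host cells; inhibitors lower the luminescence signal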
[7] = biological target: COUP transcription factor 2 (Homo sapiens, UniProt P24468); test: Luminescence-based cell-based high throughput dose response assay to identify inhibitors of COUP-TFII (NR2F2).; assay type: functional;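 note: HEK293 cells transiently cotransfected with COUP-TFII expression vector and reporter; luciferase reporter luminescence driven by COUP-TFII from the pX2-168 reporter plasmid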
[8] = C. albicans growth with fluconazole, confirmation, fluorescence, retest (AID 2467); assay type: functional, cell-based
[9] = cytotoxicity in HEK-293T cells, dose response, cytotoxicity control for BCR NF-kB inhibitor project, luminescence, B-cell screen hits (AID 489021); assay type: functional, cell-based;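 note: HEK-293T cells carrying an NF-kB luciferase reporter; cells exposed to compound for about 14 hours before viability readout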
[10] = NIH-3T3 fibroblast cytotoxicity, dose response, cytotoxicity control, cell-based, fluorescence, Alamar Blue, secondary assay (AID 2327); assay type: functional;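 note: NIH-3T3 mouse fibroblasts cultured with fluconazole at 8 µg/mL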
[11] = test system: INS1; test: beta cell apoptosis inhibitors, cytokine rescue, dose response, luminescence, retest (AID 449756); assay type: functional, cell-based; conditions: Rattus norvegicus;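 note: cell death triggered by IL-1 beta plus TNF-alpha plus IFN-gamma mixture; protective hits raise ATP signal compared with cytokine alone wells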
[12] = cytotoxicity toward NIH3T3 fibroblasts, dose response, counter-screen, cell-based, ATP luminescence, mouse fibroblasts (AID 2010); assay type: functional;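 note: cells exposed to compound for about 90 hours before reading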
[13] = cells; assay type: functional, cell-based; remark: listed apart in the source
[14] = biological target: Nuclear receptor subfamily 0 group B member 1 (Homo sapiens, UniProt P51843); assay type: functional, cell-based;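 note: HEK293T cells transfected with SF-1 and DAX-1 plus StAR promoter luciferase reporter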
[15] = biological target: Major prion protein (Homo sapiens, UniProt P04156); assay type: functional, cell-based
[16] = cells
[17] = HEK293T cell cytotoxicity, dose response, cytotoxicity control for HIV Vif inhibitor project, cherry-picks (AID 652208); assay type: functional, cell-based
[18] = growth suppression of PTEN-null colon cells, dose response, cell-based, HCT116 PTEN knockout (AID 1047); assay type: functional;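 note: HCT116 colon tumor cells with PTEN knocked out; cells exposed to compound for 60 hours before readout; potency for loss of cell viability measured by luminescence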
[19] = biological target: T2, Ubiquitin-conjugating enzyme E2 N (Homo sapiens, UniProt P61088); assay type: functional;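 note: Dose-response confirmation in a TR-FRET assay detecting UBC13-driven polyubiquitin chain formation, inhibition measured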
T2 sequence (P61088 whole entry): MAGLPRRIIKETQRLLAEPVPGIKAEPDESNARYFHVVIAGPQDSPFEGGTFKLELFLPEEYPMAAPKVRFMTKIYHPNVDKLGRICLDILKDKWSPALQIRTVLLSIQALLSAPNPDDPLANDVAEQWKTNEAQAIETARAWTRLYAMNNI

[20] = growth suppression of beta-catenin-knockout colon cells, dose response, cell-based, HCT116, human colon tumor (AID 1045); assay type: functional;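 note: HCT116 colon tumor cells with beta catenin knocked out; cells exposed to compound for 60 hours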
[21] = biological target: Galanin receptor type 3 (Homo sapiens, UniProt O60755); test: Fluorescence-based cell-based primary high throughput dose response assay to identify antagonists of the Galanin Receptor 3 (GalR3).; assay type: functional
[22] = cells; assay type: functional, cell-based; conditions: HEK-CNG
[23] = Counterscreen for antagonists of the human trace amine associated receptor 1 (hTAAR1): Fluorescence-based cell-based high throughput dose response assay to identify nonselective Ga16 antagonists.; assay type: functional
[24] = Counterscreen for […] of the human trace amine associated receptor 1 (TAAR1): Fluorescence-based cell-based high throughput dose response assay to identify nonselective Ga16 agonists.; assay type: functional
[25] = biological target: Prothrombin (Bos taurus, UniProt P00735); test: thrombin inhibition, dose response, biochemical, fluorescence polarization, uHTS hits (AID 602369); assay type: functional
[26] = biological target: 72 kDa type IV collagenase (Homo sapiens, UniProt P08253); test: Dose Response validation of uHTS RPN11 inhibitor hits using a MMP-2 Fluorescence assay.; assay type: functional
[27] = biological target: Albumin (Bos taurus, UniProt P02769); test: Counterscreen for inhibitors of T-cell receptor (TCR)-CD3 interaction: Fluorescence-based biochemical high throughput dose response assay to identify inhibitors of T-cell receptor (TCR)-CD3 interaction using a TAMRA-labeled BSA probe.; assay type: functional
[28] = biological target: 26S proteasome non-ATPase regulatory subunit 14 (Homo sapiens, UniProt O00487); test: inhibition of proteasome subunit RPN11 – biochemical, fluorescence polarization, uHTS hits, confirmation (AID 602368); assay type: functional
[29] = biological target: T3, RNA-binding protein pos-1 (Caenorhabditis elegans, UniProt G5EF15); test: inhibitors of POS-1/mex-3 RNA binding, dose response, biochemical, fluorescence polarization (AID 1964);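 note: purified POS-1 fused to maltose binding protein made in E. coli; potency of compounds blocking POS-1 binding to fluorescent RNA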
T3 sequence (G5EF15 whole entry): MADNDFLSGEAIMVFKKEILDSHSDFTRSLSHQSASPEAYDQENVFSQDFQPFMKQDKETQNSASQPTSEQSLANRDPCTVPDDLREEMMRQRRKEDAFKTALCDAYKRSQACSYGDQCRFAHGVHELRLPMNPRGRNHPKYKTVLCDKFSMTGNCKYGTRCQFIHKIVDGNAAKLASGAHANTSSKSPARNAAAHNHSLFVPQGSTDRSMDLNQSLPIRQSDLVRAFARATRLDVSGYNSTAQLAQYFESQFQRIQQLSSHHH

O=C(Nc1cccc2ccccc12)N1CCc2ccccc2C1
EC50 [1]: 0.266 µM (active)
EC50 [2]: > 29.9 µM (inactive)
IC50 [3]: 9.86 µM (active)
IC50 [4]: > 29.9 µM (inactive)
IC50 [5]: > 9.99 µM (inactive)

CCOc1ccc(-[n+]2c(-c3ccccc3)cn3c2CCCCC3)cc1
EC50 [6]: 0.534 µM (active)
IC50 [7]: 8.69 µM (active)
EC50 [8]: 16.3 µM (active)
IC50 [9]: > 80 µM (inactive)
EC50 [10]: > 150 µM (inactive)
AC50 [11]: 0.822 µM (active)
EC50 [12]: 7 µM (active)

COc1ccccc1OCc1cc(C(=O)N(C)CCC2CCCCO2)no1 (centres undefined)
IC50 [13]: > 67.5 µM (inactive)
IC50 [14]: > 67.5 µM (inactive)

CSc1nc(-c2cccs2)c(C#N)c(=O)[nH]1
IC50 [15]: 3.22 µM (active)

CSc1nc(O)c(C#N)c(-c2cccs2)n1
IC50 [16]: > 138 µM (inactive)

COc1cc2c3nnc(-c4ccc(F)cc4)c-3cn(Cc3ccc(F)cc3)c2cc1OC
AC50 [17]: 26.3 µM (active)
EC50 [18]: 6.2 µM (active)
IC50 [19]: > 20 µM (inactive)
EC50 [20]: 7.33 µM (active)

COc1cccc(CN(C)C(=O)CNC(=O)c2ccc(-c3ccccc3)cc2)c1OC
IC50 [21]: > 1.11 µM (active)
EC50 [22]: > 29.9 µM (inactive)

CCCCC(=O)Nc1ccc(C(=O)Nc2ccc(S(=O)(=O)N3CCCC3)cc2)cc1
IC50 [23]: > 29.9 µM (inactive)
EC50 [24]: > 29.9 µM (inactive)

O=C1NC(=O)N(CCc2ccccc2)C(=O)/C1=C/NNC(=O)c1ccccc1O
IC50 [25]: 47.2 µM (active)
IC50 [26]: > 100 µM (inactive)
IC50 [27]: > 94 µM (inactive)
IC50 [28]: 63.5 µM (active)
EC50 [29]: 69.9 µM (active)
